Measured values as given in ChEMBL document CHEMBL3351790, “Inhibitory effects of p-alkylaminophenol on melanogenesis” (Bioorg Med Chem, 2014).
Blank lines part the entries; values can stand above or below the molecule they belong to. The source made the active and inactive calls. The rule behind the calls is not given here.

Tests used:
Liver microsome = test: Inhibition of lipid peroxidation in rat liver microsomes; assay type: functional
B16 [1] = test: Inhibition of alpha-MSH-induced melanin production in mouse B16 cells at 1 uM after 3 days by spectrophotometry relative to control; assay type: functional; conditions: B16, 72 h
B16 [2] = test: Inhibition of alpha-MSH-induced ERK phosphorylation in mouse B16 cells at 0.1 uM after 3 days by Western blotting relative to control; assay type: cell-based
B16 [3] = test: Inhibition of alpha-MSH-induced MITF protein expression in mouse B16 cells after 3 days by Western blotting relative to control; assay type: functional, cell-based
B16 [4] = test: Inhibition of alpha-MSH-induced TRP-1 mRNA expression in mouse B16 cells at 1 uM after 3 days by RT-PCR analysis relative to control; assay type: functional; conditions: B16, 72 h
B16 [5] = test: Inhibition of alpha-MSH-induced melanin production in mouse B16 cells at 0.1 to 0.4 uM after 3 days by spectrophotometry relative to control; assay type: functional, cell-based
B16 [6] = test: Inhibition of alpha-MSH-induced MITF mRNA expression in mouse B16 cells at 1 uM after 3 days by RT-PCR analysis relative to control; assay type: functional; conditions: B16, 72 h
B16 [7] = test: Inhibition of alpha-MSH-induced TRP-1 protein expression in mouse B16 cells after 3 days by Western blotting relative to control; assay type: functional, cell-based
B16 [8] = test: Cytotoxicity against mouse B16 cells at 1 uM after 72 hrs by MTT assay; assay type: cell-based; conditions: b16, 72 h
B16 [9] = test: Inhibition of alpha-MSH-induced TRP-2 protein expression in mouse B16 cells at 0.1 to 1 uM after 3 days by Western blotting relative to control; assay type: functional, cell-based
B16 [10] = test: Inhibition of alpha-MSH-induced tyrosinase protein expression in mouse B16 cells at 0.1 to 1 uM after 3 days by Western blotting relative to control; assay type: functional, cell-based
B16 [11] = test: Inhibition of alpha-MSH-induced tyrosinase mRNA expression in mouse B16 cells at 0.1 to 1 uM after 3 days by RT-PCR analysis relative to control; assay type: functional, cell-based
[12] = biological target: T1, Tyrosinase (Mus musculus) (UniProt P11344); test: Inhibition of tyrosinase in mouse B16 cells using L-tyrosine as substrate preincubated at 50 uM for 20 mins by spectrophotometry relative to control; assay type: cell-based
T1 sequence (whole entry): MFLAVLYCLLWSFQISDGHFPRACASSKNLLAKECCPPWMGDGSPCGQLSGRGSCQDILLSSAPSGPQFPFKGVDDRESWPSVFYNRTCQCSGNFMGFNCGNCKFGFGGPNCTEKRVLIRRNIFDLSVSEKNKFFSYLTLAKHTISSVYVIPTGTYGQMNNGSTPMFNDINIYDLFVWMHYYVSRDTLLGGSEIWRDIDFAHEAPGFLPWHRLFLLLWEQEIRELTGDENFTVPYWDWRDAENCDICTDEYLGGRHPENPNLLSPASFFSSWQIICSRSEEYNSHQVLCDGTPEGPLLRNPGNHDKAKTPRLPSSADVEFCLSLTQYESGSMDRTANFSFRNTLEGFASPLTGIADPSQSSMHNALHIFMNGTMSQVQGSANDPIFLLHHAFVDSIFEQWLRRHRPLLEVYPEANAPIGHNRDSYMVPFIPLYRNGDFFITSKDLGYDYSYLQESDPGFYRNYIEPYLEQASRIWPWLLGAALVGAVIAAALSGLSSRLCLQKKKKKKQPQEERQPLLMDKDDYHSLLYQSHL

B16 [13] = test: Inhibition of alpha-MSH-induced ERK phosphorylation in mouse B16 cells at 0.4 uM after 3 days by Western blotting relative to control; assay type: cell-based
B16 [14] = test: Inhibition of alpha-MSH-induced AKT phosphorylation in mouse B16 cells at 0.1 to 1 uM after 3 days by Western blotting relative to control; assay type: cell-based
B16 [15] = test: Inhibition of alpha-MSH-induced TRP-2 mRNA expression in mouse B16 cells at 0.1 to 1 uM after 3 days by RT-PCR analysis relative to control; assay type: functional, cell-based
B16 [16] = test: Inhibition of alpha-MSH-induced ERK phosphorylation in mouse B16 cells at 1 uM after 3 days by Western blotting relative to control; assay type: cell-based

SMILES: CC1=C(/C=C/C(C)=C/C=C/C(C)=C/C(=O)O)C(C)(C)CCC1 [TRETINOIN]
- IC50 (Liver microsome): 3.2 µM

SMILES: CC1=C(/C=C/C(C)=C/C=C/C(C)=C/C(=O)Nc2ccc(O)cc2)C(C)(C)CCC1 [FENRETINIDE]
- IC50 (Liver microsome): 5 µM

SMILES: CCCCCCNc1ccc(O)cc1
- IC50 (Liver microsome): 0.033 µM

The next molecules have a lower IC50 (Liver microsome) than those just listed; values first:

- IC50 (Liver microsome): 0.0155 µM
SMILES: CCCCCCCCCCCCNc1ccc(O)cc1

- IC50 (Liver microsome): 0.015 µM
- inhibition [12]: 7%
SMILES: CCCCCCCCCCNc1ccc(O)cc1
- inhibition at 1 µM (B16 [1]): 34%
- inhibition (B16 [2]): 22%
- inhibition (B16 [3]): Dose-dependent effect
- inhibition at 1 µM (B16 [4]): 50%
- inhibition (B16 [5]): inactive
- inhibition at 1 µM (B16 [6]): 68%
- inhibition (B16 [7]): Dose-dependent effect
- Activity (B16 [8]): Non-toxic
- inhibition (B16 [9]): inactive
- inhibition (B16 [10]): inactive
- inhibition (B16 [11]): inactive
- inhibition (B16 [13]): 75%
- inhibition (B16 [14]): inactive
- inhibition (B16 [15]): inactive
- inhibition (B16 [16]): 88%

- IC50 (Liver microsome): 0.014 µM
SMILES: CCCCCCCCNc1ccc(O)cc1
